Values after ≈ are worked out from the molar mass of the structure shown.
Experiments:
[1] = test system: Streptococcus spp. spontaneous mutants; assay: organism not typed; type: cell-based
Summary of the method: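 Spontaneous mutants from drug selection plates were tested by CLSI broth microdilution in MHB II with two-fold serial drug dilutions. Inoculum was about 5×10^5 CFU/mL, incubated aerobically at 35° C. for 18-20 hr. MIC was the lowest concentration inhibiting visible growth.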

[2] = test system: E. coli, Streptococcus spp., and Bacteroides spp. isolates; type: cell-based; conditions: across the evaluated isolates
Experimental: Initial values of the MIC were determined by agar dilution in accordance with guidelines from the Clinical and Laboratory Standards Institute (CLSI; (1) “Methods for Dilution Antimicrobial Susceptibility Tests for Bacteria That Grow Aerobically; Approved Standard; 11th ed.,” CLSI standard M07, 2018; (2) “Methods for Antimicrobial Susceptibility Testing of Anaerobic Bacteria; Approved Standard—Eighth Edition,” CLSI document M11-A8, 2012.).
If there were no colonies on the antibiotic selection plates, the spontaneous mutation frequency was reported as less than the frequency observed with one colony to indicate that the spontaneous mutation frequency was less than the limit of detection (one CFU). […] The mutation prevention concentration (MPC) was reported as the lowest concentration for which no mutants were selected.

S. agalactiae ATCC 13813 = assay: Broth microdilution MIC (time-kill study); type: cell-based, Streptococcus agalactiae
[3] = test system: Bacteroides spp. spontaneous mutants; assay: Broth microdilution MIC of spontaneous mutants; type: cell-based
Experimental: (§1) Select isolates were subcultured onto agar containing drug at the selection concentration, were identified by MALDI, and were frozen for broth microdilution MIC testing as described below.
(§2) To determine whether colonies growing on drug selection plates had elevated MIC values to the selecting antibiotic, susceptibility testing by broth microdilution was conducted on isolated mutants following methodology recommended by CLSI (1), (2), and (3) “Performance Standards for Antimicrobial Susceptibility Testing; Twenty-Eighth Informational Supplement.,” CLSI document M100-S28, 2018.
(§3) All wells in columns 2 through 12 of a standard 96-well microdilution plate (Costar 3795) were filled with 150 μL of the appropriate diluent. Then, 300 μL of the test agents were added to the wells of column 1 of the plates at […] the highest final concentration to be tested. Serial two-fold dilutions were made across the rows through column 11 using the Biomek 2000. The wells of column 12 contained no drug and served as the growth control wells. This plate served as the “mother plate” from which selected MIC assay plates or “daughter plates” were made.
Daughter plates for anaerobic organisms were transferred to a Bactron II anaerobic chamber (Sheldon Manufacturing Inc., Cornelius, Oreg.) to reduce for 1 hour prior to inoculation. The inoculum for each organism was prepared in the anaerobic chamber and dispensed into sterile disposable reservoirs. Inoculation was completed using a multichannel pipette to transfer 10 μL of the inoculum into each well of the daughter plate. This yielded a final cell concentration in the daughter plates of approximately 1×10^6 CFU/mL.

E. coli MMX 1312 = assay: Time-kill assay; type: cell-based, Escherichia coli; conditions: 2×, 4×, 8× MIC; 2, 6, 24 hr
[4] = test system: Streptococcus spp. (S. pneumoniae ATCC 49619, S. pyogenes ATCC 49399, S. agalactiae ATCC 13813); assay: Agar dilution MIC (spontaneous mutation study; strain in conditions); type: cell-based
[5] = test system: E. coli spontaneous mutants; assay: Broth microdilution MIC of spontaneous mutants; type: cell-based, Escherichia coli
Experimental: as §1, §2, §3
2 μL of drug solution from each well of a mother plate was added to each corresponding well of the daughter plate in a single step. A standardized inoculum of each aerobic test organism was prepared per CLSI methods to equal a 0.5 McFarland standard, followed by a dilution of 1:20 in MHB II. The plates were then inoculated with 10 μL of the diluted inoculum using the Biomek 2000 from low to high drug concentration, resulting in a final concentration of approximately 5×10^5 CFU/mL. An un-inoculated plate was incubated for the purpose of assessing solubility of the drug in the test media.
The plates for the aerobic tests were stacked 3-4 high, covered with a sterile lid on the top plate, and incubated aerobically at 35° C. for 18-20 hr. The MIC was recorded as the lowest concentration of drug that inhibited visible growth of the organism.

[6] = S. agaloctiae ATCC 13813, selected on rifaximin 4X MIC, Colony A
[7] = S. agaloctiae ATCC 13813, selected on rifaximin 4X MIC, Colony B
[8] = S. agaloctiae ATCC 13813, selected on rifaximin 8X MIC, Colony A
[9] = S. agaloctiae ATCC 13813, selected on rifaximin 8X MIC, Colony B
[10] = S. agaloctiae ATCC 13813 Parent
[11] = S. pneumoniae ATCC 49619, selected on rifaximin 4X MIC, Colony A
[12] = S. pneumoniae ATCC 49619, selected on rifaximin 4X MIC, Colony B
[13] = S. pneumoniae ATCC 49619, selected on rifaximin 8X MIC, Colony A
[14] = S. pneumoniae ATCC 49619, selected on rifaximin 8X MIC, Colony B
[15] = S. pneumoniae ATCC 49619 Parent
[16] = S. pyogenes ATCC 49399, selected on rifaximin 4X MIC, Colony A
[17] = S. pyogenes ATCC 49399, selected on rifaximin 4X MIC, Colony B
[18] = S. pyogenes ATCC 49399, selected on rifaximin 8X MIC, Colony A
[19] = S. pyogenes ATCC 49399, selected on rifaximin 8X MIC, Colony B
[20] = S. agalacttae ATCC 13813 (so in the source)
[21] = B. fragilis ATCC 25285, selected on rifaximin 4X MIC, Colony A
[22] = B. fragilis ATCC 25285, selected on rifaximin 4X MIC, Colony B
[23] = B. fragilis ATCC 25285, selected on rifaximin 8X MIC, Colony A
[24] = B. fragilis ATCC 25285, selected on rifaximin 8X MIC, Colony B
[25] = B. ovatus MMX 3503, selected on rifaximin 4X MIC, Colony A
[26] = B. ovatus MMX 3503, selected on rifaximin 4X MIC, Colony B
[27] = B. ovatus MMX 3503, selected on rifaximin 8X MIC, Colony A
[28] = B. ovatus MMX 3503, selected on rifaximin 8X MIC, Colony B
[29] = B. vulgatus ATCC 8482, selected on ceftriaxone 4X MIC, Colony A
[30] = B. vulgatus ATCC 8482, selected on ceftriaxone 4X MIC, Colony B
[31] = B. vulgatus ATCC 8482, selected on rifaximin 4X MIC, Colony A
[32] = B. vulgatus ATCC 8482, selected on rifaximin 4X MIC, Colony B
[33] = B. vulgatus ATCC 8482, selected on rifaximin 8X MIC, Colony A
[34] = B. vulgatus ATCC 8482, selected on rifaximin 8X MIC, Colony B
[35] = B. vulgatus ATCC 8482 Parent (Table 50)
[36] = B. vulgatus ATCC 8482 Parent (Table 54)
[37] = colonies selected at 4× and 8× the MIC

Compound: Penicillin
- MIC [1, 6]: 0.015 µg/mL
- MIC [1, 7]: 0.015 µg/mL
- MIC [1, 8]: 0.015 µg/mL
- MIC [1, 9]: 0.015 µg/mL
- MIC [1, 10]: 0.015 µg/mL
- MIC [1, 11]: 0.12 µg/mL
- MIC [1, 12]: 0.25 µg/mL
- MIC [1, 13]: 0.25 µg/mL
- MIC [1, 14]: 0.25 µg/mL
- MIC [1, 15]: 0.25 µg/mL
- MIC [1, 16]: 0.004 µg/mL
- MIC [1, 17]: 0.008 µg/mL
- MIC [1, 18]: 0.004 µg/mL
- MIC [1, 19]: 0.004 µg/mL
- MIC ([1]; S. pyogenes ATCC 49399 Parent): 0.008 µg/mL

Compound: CO[C@H]1/C=C/O[C@@]2(C)Oc3c(C)c(O)c4c(O)c(c5c(nc6cc(C)ccn65)c4c3C2=O)NC(=O)/C(C)=C\C=C\[C@H](C)[C@H](O)[C@@H](C)[C@@H](O)[C@@H](C)[C@H](OC(C)=O)[C@@H]1C [rifaximin]
- MPC values [2]: In no instance was an MPC able to be reported
- MIC (S. agalactiae ATCC 13813; [20]): 0.25 µg/mL (≈ 0.318 µM)
- MIC (S. agalactiae ATCC 13813; broth microdilution): 0.25 µg/mL (≈ 0.318 µM)
- MIC [3, 21]: >64 µg/mL
- MIC [3, 22]: 64 µg/mL
- MIC [3, 23]: >64 µg/mL
- MIC [3, 24]: >64 µg/mL
- MIC ([3]; B. fragilis ATCC 25285 Parent): 0.12 µg/mL
- MIC [3, 25]: >64 µg/mL
- MIC [3, 26]: >64 µg/mL
- MIC [3, 27]: >64 µg/mL
- MIC [3, 28]: >64 µg/mL
- MIC ([3]; B. ovatus MMX 3503 Parent): 0.25 µg/mL
- MIC [3, 29]: 0.06 µg/mL
- MIC [3, 30]: 0.12 µg/mL
- MIC [3, 31]: 32 µg/mL
- MIC [3, 32]: 64 µg/mL
- MIC [3, 33]: >64 µg/mL
- MIC [3, 34]: >64 µg/mL
- MIC [3, 35]: 0.06 µg/mL
- MIC [3, 36]: 0.06 µg/mL
- broth microdilution MIC of selected colonies relative to parent strain [3, 37]: several-fold higher
- time-kill kinetics outcome (bactericidal = ≥3 log reduction in CFU per mL) (E. coli MMX 1312): Regrowth was also observed for all concentrations
- Agar MIC ([4]; S. agalactiae ATCC 13813): 0.25 µg/mL
- Agar MIC ([4]; S. pneumoniae ATCC 49619): 0.03 µg/mL
- Agar MIC ([4]; S. pyogenes ATCC 49399): 0.12 µg/mL
- MIC values (agar dilution) ([4]; over evaluated Streptococcus spp. (range stated jointly with other groups)): 0.03 to 0.5 µg/mL
- MIC [1, 6]: >8 µg/mL
- MIC [1, 7]: >8 µg/mL
- MIC [1, 8]: >8 µg/mL
- MIC [1, 9]: >8 µg/mL
- MIC [1, 10]: 0.12 µg/mL (≈ 0.153 µM)
- MIC [1, 11]: >8 µg/mL
- MIC [1, 12]: >8 µg/mL
- MIC [1, 13]: >8 µg/mL
- MIC [1, 14]: >8 µg/mL
- MIC [1, 15]: 0.015 µg/mL (≈ 0.0191 µM)
- MIC [1, 16]: >8 µg/mL
- MIC [1, 17]: >8 µg/mL
- MIC [1, 18]: >8 µg/mL
- MIC [1, 19]: >8 µg/mL
- MIC ([1]; S. pyogenes ATCC 49399 Parent): 0.06 µg/mL (≈ 0.0763 µM)
- broth microdilution MIC of selected colonies relative to parent strain [1, 37]: several-fold higher
- MIC ([5]; E. coli MMX 1312, selected on ceftriaxone 4X MIC, Colony A): 3 µg/mL
- MIC ([5]; E. coli MMX 1312, selected on ceftriaxone 4X MIC, Colony B): 8 µg/mL
- MIC ([5]; E. coli MMX 1312, selected on ceftriaxone 4X MIC, Colony C): 8 µg/mL
- MIC ([5]; E. coli MMX 1312, selected on ceftriaxone 8X MIC, Colony A): 3 µg/mL
- MIC ([5]; E. coli MMX 1312, selected on ceftriaxone 8X MIC, Colony B): 3 µg/mL
- MIC ([5]; E. coli MMX 1312, selected on ceftriaxone 8X MIC, Colony C): 3 µg/mL
- MIC ([5]; E. coli MMX 1312 Parent): 8 µg/mL
- MIC ([5]; E. coli MMX 1312 Parent (Table 49)): 8 µg/mL
- MIC ([5]; E. coli MMX 1312 mutant selected on meropenem 4X MIC, colony A): 8 µg/mL
- MIC ([5]; E. coli MMX 1312 mutant selected on meropenem 4X MIC, colony B): 8 µg/mL
- MIC ([5]; E. coli MMX 1312 mutant selected on meropenem 4X MIC, colony C): 8 µg/mL
- MIC ([5]; E. coli MMX 1312 mutant selected on meropenem 8X MIC, colony A): 8 µg/mL
- MIC ([5]; E. coli MMX 1312 mutant selected on meropenem 8X MIC, colony B): 8 µg/mL
- MIC ([5]; E. coli MMX 1312 mutant selected on meropenem 8X MIC, colony C): 4 µg/mL
- broth microdilution MIC of selected colonies relative to parent strain [5, 37]: several-fold higher

Compound: Cc1ncc([N+](=O)[O-])n1CCO [MTZ]
- MIC [3, 21]: 0.25 µg/mL
- MIC [3, 22]: 0.5 µg/mL
- MIC [3, 23]: 0.5 µg/mL
- MIC [3, 24]: 0.25 µg/mL
- MIC ([3]; B. fragilis ATCC 25285 Parent): 0.25 µg/mL
- MIC [3, 25]: 2 µg/mL
- MIC [3, 26]: 0.5 µg/mL
- MIC [3, 27]: 1 µg/mL
- MIC [3, 28]: 2 µg/mL
- MIC ([3]; B. ovatus MMX 3503 Parent): 0.5 µg/mL
- MIC [3, 29]: 1 µg/mL
- MIC [3, 30]: 1 µg/mL
- MIC [3, 31]: 1 µg/mL
- MIC [3, 32]: 1 µg/mL
- MIC [3, 33]: 1 µg/mL
- MIC [3, 34]: 1 µg/mL
- MIC [3, 35]: 1 µg/mL
- MIC [3, 36]: 1 µg/mL

Compound: piperacillin/tazobactam [piperacillin-tazobactam]
- MIC (S. agalactiae ATCC 13813; [20]): 0.06 µg/mL
